Measured values: patent publication US20010044445A1, “AZOLE INHIBITORS OF CYTOKINE PRODUCTION” (priority 1999, published 2001)

Tests used:
[1] = test system: Human peripheral blood mononuclear cells; experiment: Human Concanavalin-A Proliferation Assay (Con HU Assay); assay type: cell-based; settings: concanavalin-A stimulated human PBMC; for inhibition at 1 µM / inhibition at 10 µM / inhibition at 100 µM: 72 h, 3 days, read-out: % Inhibition of proliferation (at concentrations of 1,10, or 100 μm); for inhibition at 1 µM: concentration 1 μm (in parentheses in the cell); for inhibition at 10 µM: concentration 10 μm (in parentheses in the cell); for IC50: tritiated thymidine; for inhibition at 100 µM: concentration 100 μm (in parentheses in the cell)
Outline: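 Proliferation read as tritiated thymidine uptake (0.5 μCi/well, 6 h pulse on day 3) in human PBMC cultured 3 days with 2.5 μg/ml (final) concanavalin-A. Cells, 50,000 per well in supplemented RPMI 1640 with 10% FBS, received compound 15 min before mitogen.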

| Molecule | melting point [°C] | IC50 ([1]; Homo sapiens, PBMC) [nM] | further results |
| --- | --- | --- | --- |
| CCCCCc1ccc(C(=O)Nc2ccc(-n3nc(C(F)(F)F)cc3C(F)(F)F)cc2)c(=O)o1 [Example 4, N-[4-[3,5-bis(trifluoromethyl)-1H-pyrazol-1-yl]phenyl]-2-oxo-6-pentyl-2H-pyran-3-carboxamide] | 140 to 141 | 28800 | inhibition at 100 µM ([1]; Homo sapiens, PBMC): 82% |
| COC1CCCC(C(=O)Nc2ccc(-n3nc(C(F)(F)F)cc3C(F)(F)F)cc2)C1 (stereo not shown) [Example 11, N-[4-[3,5-bis(trifluoromethyl)-1H-pyrazol-1-yl]phenyl]-3-methoxycyclohexanecarboxamide] | 145 to 147 | 376 | inhibition at 10 µM ([1]; Homo sapiens, PBMC): 100% |
| CC#CC(=O)Nc1ccc(-n2nc(C(F)(F)F)cc2C(F)(F)F)cc1 [Example 12, N-[4-[3,5-bis(trifluoromethyl)-1H-pyrazol-1-yl]phenyl]-2-butynamide] | 220 to 221 | 427 | inhibition at 10 µM ([1]; Homo sapiens, PBMC): 98% |
| O=C(Nc1ccc(-n2nc(C(F)(F)F)cc2C(F)(F)F)cc1)C1(O)CC1 [Example 17, N-[4-[3,5-bis(trifluoromethyl)-1H-pyrazol-1-yl]phenyl]-1-hydroxycyclopropanecarboxamide] | 198 to 200 |  | inhibition at 1 µM ([1]; Homo sapiens, PBMC): 18% |
| O=C(Nc1ccc(-n2nc(C(F)(F)F)cc2C(F)(F)F)cc1)C1CCCCCC1 [Example 18, N-[4[3,5-bis(trifluoromethyl)-1H-pyrazol-1-yl]phenyl]cycloheptanecarboxamide] | 174 to 175 | 374 | inhibition at 100 µM ([1]; Homo sapiens, PBMC): 100% |
| Cc1nnsc1C(=O)Nc1ccc(-n2nc(-c3cccnc3)cc2[N+](=O)[O-])cc1 [Example 337, N-[4-[3-(3-pyridyl)-5-nitro-1H-pyrazol-1-yl]phenyl]-4-methylthiadiazol-5-yl-carboxamide] |  |  | IC50 [1]: 221 nM |
| N#Cc1cc(-c2nccs2)nn1-c1ccc(NC(=O)c2ccncc2F)cc1 [Example 338, N-(4-(5-cyano-3-(1,3-thiazol-2-yl)-1H-pyrazol-1-yl)phenyl)-3-fluoroisonicotinamide] |  | 164 |  |
| O=C(Nc1ccc(-n2nc(-c3cncc(Br)c3)cc2OC(F)F)cc1)c1ccncc1F [Example 339, N-(4-(3-(5-bromo-3-pyridinyl)-5-(difluoromethoxy)-1H-pyrazol-1-yl)phenyl)-3-fluoroisonicotinamide] |  | 369 |  |
| N#Cc1cc(-c2nccs2)nn1-c1ccc(NC(=O)c2ccncc2F)cc1 [Example 341, N-(4-(5-cyano-3-(1,3-thiazol-2-yl)-1H-pyrazol-1-yl)phenyl)-3-fluoroisonicotinamide] |  |  | IC50 [1]: 191 nM |
| Cc1nnsc1C(=O)Nc1ccc(-n2nc(-c3nccs3)cc2C(F)(F)F)cc1 [Example 342, 4-methyl-N-(4-(3-(1,3-thiazol-2-yl)-5-(trifluoromethyl)-1H-pyrazol-1-yl)phenyl)-1,2,3-thiadiazole-5-carboxamide] |  | 238 |  |
| Cc1nc(C)c(-c2cc(C(F)(F)F)n(-c3ccc(NC(=O)c4ccncc4F)cc3)n2)s1 [Example 343, N-(4-(3-(2,4-dimethyl-1,3-thiazol-5-yl)-5-(trifluoromethyl)-1H-pyrazol-1-yl)phenyl)-3-fluoroisonicotinamide] |  | 250 |  |
| Cn1ccc(-c2cc(C(F)(F)F)nn2-c2ccc(NC(=O)c3ccncc3F)cc2)c1 [Example 344, 3-fluoro-N-(4-(5-(1-methyl-1H-pyrrol-3-yl)-3-(trifluoromethyl)-1H-pyrazol-1-yl)phenyl)isonicotinamide] |  | 251 |  |
| O=C(Nc1ccc(-n2nc(-c3nccs3)cc2Cl)cc1)c1ccncc1F [Example 347, N-(4-(5-chloro-3-(1,3-thiazol-2-yl)-1H-pyrazol-1-yl)phenyl)-3-fluoroisonicotinamide] |  | 288 |  |
| Cc1nnsc1C(=O)Nc1ccc(-n2nc(-c3ccoc3)cc2Cl)cc1 [Example 355, N-(4-(5-chloro-3-(3-furyl)-1H-pyrazol-1-yl)phenyl)-4-methyl-1,2,3-thiadiazole-5-carboxamide] |  | 282 |  |
| N#Cc1cc(C2CCCO2)nn1-c1ccc(NC(=O)c2ccncc2F)cc1 (stereo not shown) [Example 357, N-(4-(5-cyano-3-tetrahydro-2-furanyl-1H-pyrazol-1-yl)phenyl)-3-fluoroisonicotinamide] |  | 1860 |  |
| Cn1ccc(-c2cc(OC(F)F)n(-c3ccc(NC(=O)c4ccncc4F)cc3)n2)c1 [Example 358, N-(4-(5-(difluoromethoxy)-3-(1-methyl-1H-pyrrol-3-yl)-1H-pyrazol-1-yl)phenyl)-3-fluoroisonicotinamide] |  | 203 |  |
| O=C(Nc1ccc(-n2nc(-c3ccoc3)cc2OC(F)F)cc1)c1ccncc1F [Example 359, N-(4-(5-(difluoromethoxy)-3-(3-furyl)-1H-pyrazol-1-yl)phenyl)-3-fluoroisonicotinamide] |  | 261 |  |
| Cn1cccc1-c1cc(OC(F)F)n(-c2ccc(NC(=O)c3ccncc3F)cc2)n1 [Example 360, N-(4-(5-(difluoromethoxy)-3-(1-methyl-1H-pyrrol-2-yl)-1H-pyrazol-1-yl)phenyl)-3-fluoroisonicotinamide] |  | 329 |  |
| N-(4-(5-acetyl-3-(trifluoromethyl)-1H-pyrazol-1-yl)phenyl)-2-fluorobenzamide [Example 305] |  |  | IC50 [1]: 170 nM |

Further lines, with some results ahead:

| melting point [°C] | Molecule | IC50 ([1]; Homo sapiens, PBMC) [nM] | further results |
| --- | --- | --- | --- |
| 204 to 205 | O=C(Nc1ccc(-n2nc(C(F)(F)F)cc2C(F)(F)F)cc1)C1CC1 [Example 1, N-[4-[3,5-bis(trifluoromethyl)-1H-pyrazol-1-yl]phenyl]cyclopropanecarboxamide] |  | inhibition at 1 µM ([1]; Homo sapiens, PBMC): 68% |
| 143 to 145 | CC1(C(=O)Nc2ccc(-n3nc(C(F)(F)F)cc3C(F)(F)F)cc2)CC1(Cl)Cl (stereo not shown) [Example 3, N-[4-[3,5-bis(trifluoromethyl)-1H-pyrazol-1-yl]phenyl]-2,2-dichloro-1-methylcyclopropanecarboxamide] | 328 | inhibition at 10 µM ([1]; Homo sapiens, PBMC): 100% |
| 172 to 173 | CC1CC1C(=O)Nc1ccc(-n2nc(C(F)(F)F)cc2C(F)(F)F)cc1 (stereo not shown) [Example 7, N-[4-[3,5-bis(trifluoromethyl)-1H-pyrazol-1-yl]phenyl]-2-methylcyclopropanecarboxamide] | 403 | inhibition at 10 µM ([1]; Homo sapiens, PBMC): 97% |
| 108 to 110 | CC1(C(=O)Nc2ccc(-n3nc(C(F)(F)F)cc3C(F)(F)F)cc2)C=CCCC1 (stereo not shown) [Example 9, N-[4-[3,5-bis(trifluoromethyl)-1H-pyrazol-1-yl]phenyl]-1-methyl-2-cyclohexene-1-carboxamide] |  | inhibition at 1 µM ([1]; Homo sapiens, PBMC): 35% |
| 174 to 175 | O=C(Nc1ccc(-n2nc(C(F)(F)F)cc2C(F)(F)F)cc1)C1=CCCC1 [Example 10, N-[4-[3,5-bis(trifluoromethyl)-1H-pyrazol-1-yl]phenyl]-1-cyclopentene-1-carboxamide] | 114 | inhibition at 10 µM ([1]; Homo sapiens, PBMC): 100% |
| 211 to 212 | CCOC(=O)c1cccc(NC(=O)Nc2ccc(-n3nc(C(F)(F)F)cc3C(F)(F)F)cc2)c1 [Example 13, ethyl 3-[[[[4-[3,5-bis(trifluoromethyl)-1H-pyrazol-1-yl]phenyl]amino]carbonyl]amino]-benzoate] | 2840 | inhibition at 100 µM ([1]; Homo sapiens, PBMC): 99% |
| 206 to 207 | O=C(Nc1ccc(-n2nc(C(F)(F)F)cc2C(F)(F)F)cc1)c1ccoc1 [Example 14, N-[4-[3,5-bis(trifluoromethyl)-1H-pyrazol-1-yl]phenyl]-3-furancarboxamide] | 538 | inhibition at 100 µM ([1]; Homo sapiens, PBMC): 97% |
| 194 to 195 | Cc1c(C(=O)Nc2ccc(-n3nc(C(F)(F)F)cc3C(F)(F)F)cc2)cccc1[N+](=O)[O-] [Example 15, N-[4-[3,5-bis(trifluoromethyl)-1H-pyrazol-1-yl]phenyl]-2-methyl-3-nitrobenzamide] | 274 | inhibition at 100 µM ([1]; Homo sapiens, PBMC): 99% |
| 204 to 205 | N#Cc1cccc(NC(=O)Nc2ccc(-n3nc(C(F)(F)F)cc3C(F)(F)F)cc2)c1 [Example 16, N-[4-[3,5-bis(trifluoromethyl)-1H-pyrazol-1-yl]phenyl]-N′-(3-cyanophenyl)urea] | 4190 | inhibition at 100 µM ([1]; Homo sapiens, PBMC): 100% |
| 213 to 215 | O=C(Nc1ccc(-n2nc(C(F)(F)F)cc2C(F)(F)F)cc1)c1cc2ccccc2o1 [Example 19, N-[4-[3,5-bis(trifluoromethyl)-1H-pyrazol-1-yl]phenyl]-2-benzofurancarboxamide] |  | inhibition at 1 µM ([1]; Homo sapiens, PBMC): 9% |
| 253 to 255 | O=C(Nc1ccc(-n2nc(C(F)(F)F)cc2C(F)(F)F)cc1)c1cc2cc(F)ccc2[nH]1 [Example 20, N-[4-[3,5-bis(trifluoromethyl)-1H-pyrazol-1-yl]phenyl]-5-fluoro-1H-indole-2-carboxamide] |  | inhibition at 1 µM ([1]; Homo sapiens, PBMC): 10% |
| 173 to 175 | O=C(/C=C/c1ccccc1Cl)Nc1ccc(-n2nc(C(F)(F)F)cc2C(F)(F)F)cc1 [Example 21, (E)-N-[4-[3,5-bis(trifluoromethyl)-1H-pyrazol-1-yl]phenyl]-3-(2-chlorophenyl)-2-propenamide] |  | inhibition at 1 µM ([1]; Homo sapiens, PBMC): 2% |
| 204 to 205 | O=C(Nc1ccc(-n2nc(C(F)(F)F)cc2C(F)(F)F)cc1)c1ccccc1C(=O)c1ccccc1 [Example 22, 2-Benzoyl-N-[4-[3,5-bis(trifluoromethyl)-1H-pyrazol-1-yl]phenyl]benzamide] |  | inhibition at 1 µM ([1]; Homo sapiens, PBMC): 14% |
